Measurements: ChEMBL document CHEMBL4342489, “Structure-Activity Relationship Evaluation of Wasp Toxin β-PMTX Leads to Analogs with Superior Activity for Human Neuronal Sodium Channels” (ACS Med Chem Lett, 2020)
Calls of active or inactive are those of the source. The calls are words filed in the database; no cut-off is given here. Non-standard residues stand in square brackets, D forms with d. Residues, ends and D or L forms follow the SMILES beside them. 1Nal = N[C@@H](Cc1cccc2ccccc12)C(=O)O; 2Nal = N[C@@H](Cc1ccc2ccccc2c1)C(=O)O

Key:
[1] = target: Sodium channel protein type 1 subunit alpha (Homo sapiens) (UniProt P35498); assay: Activation of human Nav1.1 expressed in HEK293 cells assessed as ratio of compound activation AUC to baseline activation AUC at 3.3 uM at -120 mV holding potential by Qpatch assay; format: cell-based
[2] = target: Sodium channel protein type 1 subunit alpha (Homo sapiens) (UniProt P35498); assay: Activation of human Nav1.1 expressed in HEK293 cells assessed as ratio of compound activation AUC to baseline activation AUC at 1.11 uM at -120 mV holding potential by Qpatch assay; format: cell-based
[3] = target: Sodium channel protein type 1 subunit alpha (Mus musculus) (UniProt A2APX8); assay: Activation of Nav1.1 in C57BL/6 mouse GABAergic cortical neurons assessed as rescue of ICA-121431-induced neuronal firing loss at 300 nM at holding potential -65 mV by current clamp assay
[4] = target: Sodium channel protein type 3 subunit alpha (Homo sapiens) (UniProt Q9NY46); assay: Activation of human Nav1.3 expressed in CHOK1 cells assessed as ratio of compound activation AUC to baseline activation AUC at 3.3 uM at -120 mV holding potential by Qpatch assay; format: cell-based
Sequence of Sodium channel protein type 3 subunit alpha (Homo sapiens) (Q9NY46 whole entry, looked up): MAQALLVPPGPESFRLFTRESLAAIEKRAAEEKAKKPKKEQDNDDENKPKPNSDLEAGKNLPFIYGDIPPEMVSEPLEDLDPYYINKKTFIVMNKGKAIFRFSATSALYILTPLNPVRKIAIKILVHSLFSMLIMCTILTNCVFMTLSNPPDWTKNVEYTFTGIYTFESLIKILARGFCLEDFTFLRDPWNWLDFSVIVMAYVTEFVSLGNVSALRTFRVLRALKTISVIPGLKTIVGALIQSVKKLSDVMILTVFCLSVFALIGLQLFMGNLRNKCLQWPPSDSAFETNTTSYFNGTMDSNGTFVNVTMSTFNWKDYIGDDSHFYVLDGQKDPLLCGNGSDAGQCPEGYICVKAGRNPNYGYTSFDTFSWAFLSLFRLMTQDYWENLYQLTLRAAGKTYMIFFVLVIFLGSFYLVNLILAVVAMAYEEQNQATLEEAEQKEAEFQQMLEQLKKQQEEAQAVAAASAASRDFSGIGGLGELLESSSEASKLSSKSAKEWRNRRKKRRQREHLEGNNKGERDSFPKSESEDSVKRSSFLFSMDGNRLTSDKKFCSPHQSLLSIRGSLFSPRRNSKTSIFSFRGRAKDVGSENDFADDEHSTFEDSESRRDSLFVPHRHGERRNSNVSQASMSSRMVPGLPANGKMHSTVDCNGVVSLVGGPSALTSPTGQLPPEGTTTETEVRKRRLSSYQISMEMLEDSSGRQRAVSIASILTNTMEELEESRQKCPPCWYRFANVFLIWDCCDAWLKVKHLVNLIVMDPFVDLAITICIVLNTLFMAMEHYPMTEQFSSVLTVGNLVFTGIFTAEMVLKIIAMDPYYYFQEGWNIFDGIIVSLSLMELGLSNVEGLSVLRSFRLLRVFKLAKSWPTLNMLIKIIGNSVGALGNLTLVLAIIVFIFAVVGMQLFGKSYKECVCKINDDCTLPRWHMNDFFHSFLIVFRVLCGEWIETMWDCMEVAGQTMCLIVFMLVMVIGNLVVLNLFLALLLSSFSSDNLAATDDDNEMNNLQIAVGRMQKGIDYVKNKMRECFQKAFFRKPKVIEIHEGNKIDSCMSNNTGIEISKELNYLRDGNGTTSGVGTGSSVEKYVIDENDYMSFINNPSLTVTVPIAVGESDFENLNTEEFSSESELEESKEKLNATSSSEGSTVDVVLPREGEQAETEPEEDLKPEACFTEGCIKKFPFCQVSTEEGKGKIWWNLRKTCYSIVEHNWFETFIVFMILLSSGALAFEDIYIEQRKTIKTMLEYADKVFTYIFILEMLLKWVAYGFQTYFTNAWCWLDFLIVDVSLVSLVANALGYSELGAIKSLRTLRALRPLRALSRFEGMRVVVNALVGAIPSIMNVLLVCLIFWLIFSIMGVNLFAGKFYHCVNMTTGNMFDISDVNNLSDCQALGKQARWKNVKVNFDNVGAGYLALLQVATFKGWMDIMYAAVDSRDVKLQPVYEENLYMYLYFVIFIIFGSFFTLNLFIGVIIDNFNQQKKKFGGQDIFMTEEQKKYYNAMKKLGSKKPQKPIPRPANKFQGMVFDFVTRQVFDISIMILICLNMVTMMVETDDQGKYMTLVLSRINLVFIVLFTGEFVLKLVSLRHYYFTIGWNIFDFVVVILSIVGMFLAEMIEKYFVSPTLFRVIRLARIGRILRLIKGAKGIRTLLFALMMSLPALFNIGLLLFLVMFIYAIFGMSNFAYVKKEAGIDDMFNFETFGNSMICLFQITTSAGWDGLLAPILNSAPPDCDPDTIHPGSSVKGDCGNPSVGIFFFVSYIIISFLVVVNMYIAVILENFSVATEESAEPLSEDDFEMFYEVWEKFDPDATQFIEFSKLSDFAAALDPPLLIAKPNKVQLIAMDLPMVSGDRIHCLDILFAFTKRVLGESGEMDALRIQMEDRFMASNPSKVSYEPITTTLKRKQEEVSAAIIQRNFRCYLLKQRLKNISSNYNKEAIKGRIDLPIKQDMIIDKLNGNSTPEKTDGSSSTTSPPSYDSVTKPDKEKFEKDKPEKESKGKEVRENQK

[5] = target: Sodium channel protein type 5 subunit alpha (Homo sapiens, UniProt Q14524); assay: Activation of human Nav1.5 expressed in HEK293 cells assessed as ratio of compound activation AUC to baseline activation AUC at 3.3 uM at -120 mV holding potential by Qpatch assay; format: cell-based; conditions: hek293, 3.3 µM
[6] = target: Sodium channel protein type 9 subunit alpha (Homo sapiens) (UniProt Q15858); assay: Activation of human Nav1.7 expressed in HEK293 cells assessed as ratio of compound activation AUC to baseline activation AUC at 3.3 uM at -120 mV holding potential by Qpatch assay; format: cell-based
[7] = target: Sodium channel protein type 4 subunit alpha (Homo sapiens) (UniProt P35499); assay: Activation of human Nav1.4 expressed in HEK293 cells assessed as ratio of compound activation AUC to baseline activation AUC at 3.3 uM at -120 mV holding potential by Qpatch assay; format: cell-based
Sequence of Sodium channel protein type 4 subunit alpha (Homo sapiens) (P35499 whole entry, looked up): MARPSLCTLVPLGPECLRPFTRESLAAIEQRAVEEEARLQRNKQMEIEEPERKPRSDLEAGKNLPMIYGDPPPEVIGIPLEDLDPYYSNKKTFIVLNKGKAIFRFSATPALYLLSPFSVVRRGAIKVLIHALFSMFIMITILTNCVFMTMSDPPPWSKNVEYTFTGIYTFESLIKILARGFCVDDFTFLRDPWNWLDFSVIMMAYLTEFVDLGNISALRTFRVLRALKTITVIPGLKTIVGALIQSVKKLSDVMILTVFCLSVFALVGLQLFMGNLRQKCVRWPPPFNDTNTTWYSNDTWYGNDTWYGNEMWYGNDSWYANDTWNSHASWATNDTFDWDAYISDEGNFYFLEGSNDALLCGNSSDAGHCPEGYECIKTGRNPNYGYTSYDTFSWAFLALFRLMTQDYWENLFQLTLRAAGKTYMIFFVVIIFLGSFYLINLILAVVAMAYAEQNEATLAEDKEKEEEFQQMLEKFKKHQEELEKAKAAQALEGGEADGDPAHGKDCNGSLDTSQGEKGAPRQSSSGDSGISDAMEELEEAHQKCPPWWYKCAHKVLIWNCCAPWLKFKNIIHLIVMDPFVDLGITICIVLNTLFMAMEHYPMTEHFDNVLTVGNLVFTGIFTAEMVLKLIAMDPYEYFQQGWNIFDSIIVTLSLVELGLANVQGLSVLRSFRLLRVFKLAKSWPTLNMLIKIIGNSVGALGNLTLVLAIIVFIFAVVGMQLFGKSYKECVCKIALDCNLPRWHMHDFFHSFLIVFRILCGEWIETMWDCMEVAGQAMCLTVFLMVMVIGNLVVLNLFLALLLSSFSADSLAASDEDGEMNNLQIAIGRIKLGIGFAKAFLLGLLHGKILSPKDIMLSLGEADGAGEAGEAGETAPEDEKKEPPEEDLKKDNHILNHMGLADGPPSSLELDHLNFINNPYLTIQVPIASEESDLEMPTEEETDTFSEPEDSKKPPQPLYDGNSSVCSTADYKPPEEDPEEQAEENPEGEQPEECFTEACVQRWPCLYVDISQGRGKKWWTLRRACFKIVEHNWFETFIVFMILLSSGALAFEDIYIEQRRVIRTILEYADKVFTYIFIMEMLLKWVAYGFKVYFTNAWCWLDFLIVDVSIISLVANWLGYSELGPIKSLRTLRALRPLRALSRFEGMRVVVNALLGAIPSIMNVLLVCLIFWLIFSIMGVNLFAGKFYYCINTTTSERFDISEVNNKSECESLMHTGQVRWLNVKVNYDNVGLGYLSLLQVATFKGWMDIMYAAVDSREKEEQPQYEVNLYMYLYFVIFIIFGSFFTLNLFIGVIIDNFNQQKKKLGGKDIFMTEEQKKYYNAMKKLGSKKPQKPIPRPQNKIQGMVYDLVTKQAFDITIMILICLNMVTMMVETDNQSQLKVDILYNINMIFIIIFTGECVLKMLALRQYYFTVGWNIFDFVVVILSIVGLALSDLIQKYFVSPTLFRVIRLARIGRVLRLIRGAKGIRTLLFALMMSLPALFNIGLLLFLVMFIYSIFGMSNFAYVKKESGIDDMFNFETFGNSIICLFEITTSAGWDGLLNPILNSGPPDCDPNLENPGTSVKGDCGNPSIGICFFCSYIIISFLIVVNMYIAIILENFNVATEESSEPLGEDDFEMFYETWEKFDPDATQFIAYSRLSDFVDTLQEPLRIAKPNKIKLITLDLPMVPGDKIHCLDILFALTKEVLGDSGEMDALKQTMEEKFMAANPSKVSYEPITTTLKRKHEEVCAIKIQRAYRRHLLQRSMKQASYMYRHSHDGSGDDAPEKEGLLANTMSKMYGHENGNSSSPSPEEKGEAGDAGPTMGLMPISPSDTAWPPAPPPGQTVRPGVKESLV

[8] = target: Sodium channel protein type 2 subunit alpha (Homo sapiens) (UniProt Q99250); assay: Activation of human Nav1.2 expressed in CHOK1 cells assessed as ratio of compound activation AUC to baseline activation AUC at 3.3 uM at -120 mV holding potential by Qpatch assay; format: cell-based
[9] = target: Sodium channel protein type 1 subunit alpha (Homo sapiens) (UniProt P35498); assay: Activation of human Nav1.1 expressed in HEK293 cells assessed as ratio of compound activation AUC to baseline activation AUC at 0.12 uM at -120 mV holding potential by Qpatch assay; format: cell-based
[10] = target: Sodium channel protein type 1 subunit alpha (Homo sapiens) (UniProt P35498); assay: Activation of human Nav1.1 expressed in HEK293 cells assessed as ratio of compound activation AUC to baseline activation AUC at 0.37 uM at -120 mV holding potential by Qpatch assay; format: cell-based
[11] = target: Sodium channel protein type 8 subunit alpha (Homo sapiens) (UniProt Q9UQD0); assay: Activation of human Nav1.6 expressed in HEK293 cells assessed as ratio of compound activation AUC to baseline activation AUC at 3.3 uM at -120 mV holding potential by Qpatch assay; format: cell-based
[12] = target: Sodium channel protein type 1 subunit alpha (Homo sapiens) (UniProt P35498); assay: Activation of human Nav1.1 expressed in HEK293 cells at 3.3 uM at -120 mV holding potential by Qpatch assay relative to control; format: cell-based

`CC[C@H](C)[C@H](NC(=O)[C@H](CCCCN)NC(=O)[C@@H](NC(=O)[C@@H](N)CCCNC(=N)N)[C@@H](C)CC)C(=O)NCC(=O)N[C@@H](CC(C)C)C(=O)N[C@@H](Cc1cccc2ccccc12)C(=O)N[C@@H](CC(=O)O)C(=O)N[C@@H](CCC(N)=O)C(=O)N[C@@H](CC(C)C)C(=O)N[C@@H](CO)C(=O)N[C@@H](CCCNC(=N)N)C(=O)N[C@@H](CC(C)C)C(N)=O` (H-RIKIGL[1Nal]DQLSRL-NH2) was tested, and the Ratio AUC [1] was 3.1, the Ratio AUC [2] was 1.8 and the Activity [3] was “Active”. For the same molecule, the Ratio AUC [4] was 2, the “Ratio AUC” value [5] was 1.7 and the Ratio AUC [6] was 2.9. It also gave a Ratio AUC [7] of 1.4, a Ratio AUC [8] of 1.8 and a Ratio AUC [9] of 1. It also gave a Ratio AUC [10] of 1.2 and a Ratio AUC [11] of 3.1.

In the case of `CC[C@H](C)[C@H](NC(=O)[C@H](CCCNC(=N)N)NC(=O)[C@@H](NC(=O)[C@@H](N)CCCNC(=N)N)[C@@H](C)CC)C(=O)NCC(=O)N[C@@H](CC(C)C)C(=O)N[C@@H](Cc1ccc2ccccc2c1)C(=O)N[C@@H](CC(=O)O)C(=O)N[C@@H](CCC(N)=O)C(=O)N[C@@H](CC(C)C)C(=O)N[C@@H](CC(C)C)C(=O)N[C@@H](CCCNC(=N)N)C(=O)N[C@@H](CC(C)C)C(N)=O` (H-RIRIGL[2Nal]DQLLRL-NH2), the Ratio AUC [1] is reported as 12.7, the Ratio AUC [2] is reported as 5.2 and the Ratio AUC [4] is reported as 4.4. For the same molecule, the “Ratio AUC” value [5] was 1.3, the Ratio AUC [6] was 9.6 and the Ratio AUC [7] was 1.6. The Ratio AUC [8] was 7.1, the Ratio AUC [9] was 1.4 and the Activity [12] was 1170%. It also gave a Ratio AUC [10] of 2.5 and a Ratio AUC [11] of 8.1.

`CC[C@H](C)[C@H](NC(=O)[C@H](CCCCN)NC(=O)[C@@H](NC(=O)[C@@H](N)CCCNC(=N)N)[C@@H](C)CC)C(=O)NCC(=O)N[C@@H](CC(C)C)C(=O)N[C@@H](Cc1ccccc1)C(=O)N[C@@H](CC(=O)O)C(=O)N[C@@H](CCC(N)=O)C(=O)N[C@@H](CC(C)C)C(=O)N[C@@H](CO)C(=O)N[C@@H](CCCNC(=N)N)C(=O)N[C@@H](CC(C)C)C(N)=O` (H-RIKIGLFDQLSRL-NH2) gave a Ratio AUC [1] of 1.4, a Ratio AUC [2] of 1.1 and a Ratio AUC [4] of 1.2. The “Ratio AUC” value [5] was 1, the Ratio AUC [6] was 1.1 and the Ratio AUC [7] was 0.8. The Ratio AUC [8] was 0.9, the Ratio AUC [9] was 1 and the Activity [12] was 40%. The Ratio AUC [10] was 1 and the Ratio AUC [11] was 1.3.
